In ChEMBL document CHEMBL1201862, “PubChem BioAssay data set” (2004):
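96-well plates; 48 h exposure; 5 concentrations. Endpoints by linear interpolation between flanking doses. Not reached: highest tested concentration assigned. The concentration for 50% growth inhibition is given as GI50.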 Activity calls are given as the source filed them. Rule as the data show it: active = GI50 up to about 1.1 µM and inactive = higher.

How the values were obtained:
Test in all cases: NCI tumour cell line growth inhibition, 48 h
[1] = system: SNB-19
[2] = system: A498
[3] = system: KM12
[4] = system: SW-620
[5] = system: K562
[6] = system: SK-MEL-5
[7] = system: HL-60
[8] = system: LOX IMVI
[9] = system: SNB-75
[10] = system: COLO 205
[11] = system: SK-MEL-2
[12] = system: MDA-N
[13] = system: OVCAR-5
[14] = system: SF-295
[15] = system: MDA-MB-435
[16] = system: CCRF-CEM
[17] = system: UACC-62
[18] = system: HOP-92
[19] = system: HT-29

Compound	GI50 [1]	GI50 [2]	GI50 [3]	GI50 [4]	GI50 [5]	GI50 [6]	GI50 [7]	GI50 [8]	GI50 [9]	GI50 [10]	GI50 [11]	GI50 [12]	GI50 [13]	GI50 [14]	GI50 [15]	GI50 [16]	GI50 [17]	GI50 [18]	GI50 [19]
CNC(=O)C1OC(n2cnc3c(NCc4cccc(I)c4)nc(Cl)nc32)C(O)C1O (configuration not stated)	12.4 µM (inactive)	13.8 µM (inactive)	12 µM (inactive)	14.9 µM (inactive)	12.9 µM (inactive)	12 µM (inactive)	15.3 µM (inactive)	6.18 µM (inactive)	0.839 µM (active)	22.5 µM (inactive)	14.7 µM (inactive)	20.7 µM (inactive)	14 µM (inactive)	18.7 µM (inactive)	11.3 µM (inactive)	16.7 µM (inactive)	10.1 µM (inactive)		
Cc1ccc(SC2=C(N(C)C)C(=O)c3ccccc3C2=O)cc1	12.3 µM (inactive)	15.9 µM (inactive)	3.06 µM (inactive)	1.46 µM (inactive)	0.383 µM (active)	2.31 µM (inactive)	0.38 µM (active)	3.35 µM (inactive)	12.1 µM (inactive)	20.8 µM (inactive)	9.73 µM (inactive)		12.9 µM (inactive)	11.5 µM (inactive)	0.444 µM (active)	1.55 µM (inactive)	4.35 µM (inactive)	4.71 µM (inactive)	6.27 µM (inactive)
CCOC(=O)C(C#N)C1=CC(=O)C(=O)c2ccc(O)cc21 (configuration not stated)	> 100 µM (inactive)	> 100 µM (inactive)	> 100 µM (inactive)	77.4 µM (inactive)	> 100 µM (inactive)	42.7 µM (inactive)	> 100 µM (inactive)	36.7 µM (inactive)	51.1 µM (inactive)	> 100 µM (inactive)	23.2 µM (inactive)	18.5 µM (inactive)	> 100 µM (inactive)	90.6 µM (inactive)	21.1 µM (inactive)	> 100 µM (inactive)	17.1 µM (inactive)		> 100 µM (inactive)
CN1CC2=C(N=C(S)NC2c2ccc(Cl)cc2)/C(=C/c2ccc(Cl)cc2)C1 (configuration not stated)	> 10 µM (inactive)	> 10 µM (inactive)	18.5 µM (inactive)	14.6 µM (inactive)	12.6 µM (inactive)	13.3 µM (inactive)	14.6 µM (inactive)	16.1 µM (inactive)	15.1 µM (inactive)	17.4 µM (inactive)	13.3 µM (inactive)	19.7 µM (inactive)	15.8 µM (inactive)	17.6 µM (inactive)	14.9 µM (inactive)	13.5 µM (inactive)	18.2 µM (inactive)		16.2 µM (inactive)
CC(C)OC(=O)C1(C(C)C)CCc2ccc(C(=O)CCC(=O)O)cc21 (configuration not stated)	> 100 µM (inactive)		> 100 µM (inactive)	> 100 µM (inactive)	> 100 µM (inactive)	> 100 µM (inactive)	> 100 µM (inactive)	> 100 µM (inactive)	> 100 µM (inactive)	> 100 µM (inactive)	> 100 µM (inactive)	> 100 µM (inactive)	> 100 µM (inactive)	> 100 µM (inactive)		> 100 µM (inactive)	> 100 µM (inactive)		> 100 µM (inactive)
CC(=O)OCCC[C@@H]1C(=C(C)C)CCC2[C@@]1(C)CC[C@@]1(C)C[C@](C)(CCC=C(C)C)CC[C@]21C (some centres not stated)	> 100 µM (inactive)	> 100 µM (inactive)	> 100 µM (inactive)	> 100 µM (inactive)		> 100 µM (inactive)	> 100 µM (inactive)		7.94 µM (inactive)	> 100 µM (inactive)		> 100 µM (inactive)	> 100 µM (inactive)	> 100 µM (inactive)	> 100 µM (inactive)	> 100 µM (inactive)	> 100 µM (inactive)		> 100 µM (inactive)
CC(=O)OC/C=C(/CCl)CCC(Br)C(C)(C)Br.CC(=O)OC/C=C(\CCl)CCC(Br)C(C)(C)Br (configuration not stated)	> 10 µM (inactive)	> 10 µM (inactive)	> 10 µM (inactive)	> 10 µM (inactive)	> 10 µM (inactive)	> 10 µM (inactive)	> 10 µM (inactive)	> 10 µM (inactive)	> 10 µM (inactive)	> 10 µM (inactive)	> 10 µM (inactive)	> 10 µM (inactive)	> 10 µM (inactive)	> 10 µM (inactive)	> 10 µM (inactive)	> 10 µM (inactive)	> 10 µM (inactive)		> 10 µM (inactive)
COc1ccc2c3c([nH]c2c1[N+](=O)[O-])C(C)N(Cc1ccccc1)CC3 (configuration not stated)	9.1 µM (inactive)	2.4 µM (inactive)	3.59 µM (inactive)	2.11 µM (inactive)	0.643 µM (active)		2.18 µM (inactive)	3.91 µM (inactive)		3.17 µM (inactive)	3.52 µM (inactive)		43.3 µM (inactive)	2.02 µM (inactive)		2.51 µM (inactive)	3.1 µM (inactive)		2.92 µM (inactive)
C1=NN2C(c3ccccc3)=NOC2C2C(c3ccccc3)=NOC12 (configuration not stated)	> 100 µM (inactive)		> 100 µM (inactive)			58.7 µM (inactive)		> 100 µM (inactive)	> 100 µM (inactive)	> 100 µM (inactive)		> 100 µM (inactive)	> 100 µM (inactive)	> 100 µM (inactive)			> 100 µM (inactive)		
Cc1cc2nn(C3CCCO3)nc2cc1C (configuration not stated)		> 100 µM (inactive)			> 100 µM (inactive)	> 100 µM (inactive)			69.3 µM (inactive)	> 100 µM (inactive)	> 100 µM (inactive)	> 100 µM (inactive)	> 100 µM (inactive)	> 100 µM (inactive)	> 100 µM (inactive)	> 100 µM (inactive)	> 100 µM (inactive)		> 100 µM (inactive)
C[C@@]1(O)C2CC3CC1(c1ccccc1)CC(/C3=N/O)/C2=N\O (some centres not stated)	> 100 µM (inactive)	> 100 µM (inactive)	> 100 µM (inactive)	> 100 µM (inactive)	> 100 µM (inactive)	> 100 µM (inactive)	> 100 µM (inactive)	> 100 µM (inactive)	> 100 µM (inactive)	> 100 µM (inactive)	> 100 µM (inactive)		> 100 µM (inactive)	> 100 µM (inactive)	> 100 µM (inactive)	> 100 µM (inactive)	> 100 µM (inactive)	> 100 µM (inactive)	> 100 µM (inactive)
CN(Cc1cnc2nc(N)nc(N)c2n1)c1ccc(C(=O)NC23CC4CC(CC(C4)C2)C3)cc1	6.52 µM (inactive)	53.6 µM (inactive)	12.3 µM (inactive)	7.33 µM (inactive)	1.06 µM (active)	4.19 µM (inactive)	12.2 µM (inactive)	5.48 µM (inactive)	21.5 µM (inactive)	10.4 µM (inactive)	11.5 µM (inactive)		12.2 µM (inactive)	4.69 µM (inactive)	10.5 µM (inactive)	3.95 µM (inactive)	3.66 µM (inactive)		
COC(=O)C1=C(C)NC(C)=C(C(=O)OC)C1c1nc2sccn2c1[N+](=O)[O-]	> 100 µM (inactive)	> 100 µM (inactive)	> 100 µM (inactive)	> 100 µM (inactive)	> 100 µM (inactive)	> 100 µM (inactive)	> 100 µM (inactive)	> 100 µM (inactive)	> 100 µM (inactive)	> 100 µM (inactive)	> 100 µM (inactive)		> 100 µM (inactive)	> 100 µM (inactive)	> 100 µM (inactive)	> 100 µM (inactive)	> 100 µM (inactive)	> 100 µM (inactive)	
C/C(=C\CSCC(N)C(=O)O)CC/C=C(\C)CNc1ccccc1 (configuration not stated)	> 100 µM (inactive)		> 100 µM (inactive)	> 100 µM (inactive)	> 100 µM (inactive)	75.2 µM (inactive)	> 100 µM (inactive)	> 100 µM (inactive)	> 100 µM (inactive)	> 100 µM (inactive)	> 100 µM (inactive)		> 100 µM (inactive)	> 100 µM (inactive)	> 100 µM (inactive)		> 100 µM (inactive)		> 100 µM (inactive)
COc1cc2ccnc(C#N)c2cc1OCc1ccccc1	84.1 µM (inactive)	87.1 µM (inactive)	> 100 µM (inactive)	> 100 µM (inactive)	> 100 µM (inactive)	> 100 µM (inactive)			21.9 µM (inactive)		64.1 µM (inactive)		> 100 µM (inactive)	32.1 µM (inactive)		> 100 µM (inactive)			> 100 µM (inactive)
COc1ccc(/C=C/[N+](=O)[O-])cc1	3.52 µM (inactive)	5.15 µM (inactive)	3.18 µM (inactive)	2.83 µM (inactive)	3.53 µM (inactive)	11.6 µM (inactive)	2.77 µM (inactive)	2.13 µM (inactive)	14.9 µM (inactive)	4.04 µM (inactive)	20 µM (inactive)		14.4 µM (inactive)	2.62 µM (inactive)	1.86 µM (inactive)		14.9 µM (inactive)		3.24 µM (inactive)
CC(=O)O[C@H]1CC2C(C3CCC(C(C)CCC(=O)O)[C@]31C)[C@H](OC(C)=O)C[C@@H]1CC3(CC[C@]21C)OOC1(CC[C@]2(C)C4C[C@H](OC(C)=O)[C@]5(C)C(C(C)CCC(=O)O)CCC5C4[C@H](OC(C)=O)C[C@@H]2C1)OO3 (some centres not stated)	2.86 µM (inactive)		1.31 µM (inactive)	3.46 µM (inactive)	2.44 µM (inactive)	1.55 µM (inactive)	1.51 µM (inactive)	1.63 µM (inactive)	1.3 µM (inactive)	1.91 µM (inactive)	1.77 µM (inactive)	2.31 µM (inactive)	1.78 µM (inactive)	1.77 µM (inactive)	1.94 µM (inactive)	2.59 µM (inactive)			2.57 µM (inactive)
